Patent US4201866A, “O-Hemi-succinate of propranolol” (American Home Products Corporation, priority 1977, dated 1980)
“And” between values parts separate entries of the source, which are not always exact repeats. Equal values may be shown once. Where a name gives a salt, the structure may show the parent alone. Read-outs that look alike come from different tables or passages of the source.

Experiments:
Format in all cases: in vivo, beagle dogs
[1] = Oral propranolol-o-hemi-succinate hydrochloride; plasma levels of unchanged ester and free propranolol (Example 5)
Procedure: (§1) Four beagle dogs were administered propranolol-o-hemi-succinate hydrochloride either intravenously or orally. The dogs were divided into two groups of two, each group receiving each dosing regimen according to a crossover design. The oral doses consisted of 107 mg of propranolol-o-hemi-succinate hydrochloride (equivalent to 80 mg propranolol HCl) and the intravenous doses consisted of 26.7 mg of propranolol-o-hemi-succinate hydrochloride (equivalent to 20 mg propranolol HCl). Blood samples were collected at regular intervals after dosing and plasma was analyzed for free propranolol and unchanged propranolol-o-hemi-succinate hydrochloride.
(§2) Plasma was analyzed for propranolol-o-hemi-succinate hydrochloride by a TLC fluorometric procedure. Two ml samples were mixed with 2 ml of pH 4 buffer and extracted with 40 ml of methylene chloride. A 30 ml aliquot from the organic phase was evaporated to dryness and the residue was dissolved in 100 μl of ethanol. Twenty-five μl aliquots were spotted on TLC plates of silica gel along with standard solutions of propranolol-o-hemi-succinate hydrochloride. The plates were developed in saturated tank containing the solvent system: isopropyl alcohol (55 ml), benzene (40 ml), water (5 ml), formic acid (3 ml). After developement, the plates were dried and sprayed with a 50% solution of propylene glycol in water. They were read in the fluorescence mode of a Schoeffel spectrodensitometer. The limit of reliable quantitation was 25 ng per ml of plasma.

[2] = Oral administration of a reduced dose of propranolol-o-hemi-succinate hydrochloride; plasma levels of free propranolol (Example 4)
Procedure: Two beagle dogs were given an oral dose of 13.4 mg of propranolol-O-hemi-succinate hydrochloride (equivalent to 10 mg. propranolol HCl). Blood samples were obtained at regular intervals after drug administration and plasma analyzed for free propranolol. Plasma levels of free propranolol were compared to those obtained following administration of 80 mg dose of propranolol HCl.

[3] = Intravenous administration of propranolol HCl and propranolol-o-hemi-succinate HCl; plasma levels of free propranolol (Example 3)
Procedure: (§3) Plasma was analyzed for free propranolol by a TLC fluorometric procedure. Two ml samples were mixed with 2 ml of pH 10 buffer and extracted with 25 ml of ethyl ether. A 20 ml aliquot from the ether phase was evaporated to dryness and the dry residue was dissolved in 100 μl of ethanol. Twenty-five μl aliquots were spotted on TLC plates of silica gel along with standard solutions of propranolol. The plates were developed in a saturated tank containing the solvent system methanol (100 ml): concentrated NH4 OH (0.4 ml). After development, the plates were dried and sprayed with a 50% solution of propylene glycol in water. They were then read in the fluorescence mode of a Schoeffel spectrodensitometer. The limit of reliable quantitation was 2 ng. of propranolol per ml of plasma.
In this experiment, the same four dogs used in Example 2 were administered a 20 mg intravenous dose of propranolol HCl on one experimental day and an equivalent dose of the o-hemi-succinate on a second day. A period of one week elapsed between each administration. Blood samples were collected and analyzed as above.

[4] = Intravenous propranolol-o-hemi-succinate hydrochloride; plasma levels of unchanged ester and free propranolol (Example 5)
Procedure: as §1, §2

[5] = Oral administration of propranolol-o-hemi-succinate HCl and propranolol HCl; plasma levels of free propranolol (Example 2)
Procedure: In this experiment, four beagle dogs were given an 80 mg. oral dose of propranolol HCl or an equivalent dose of the o-hemi-succinate. The animals were divided into two groups of two, each group receiving the drugs according to a crossover design. The crossover experiment was repeated twice. A period of at least one week elapsed between each dosing day. Blood samples were obtained at regular intervals after dosing a plasma was analyzed for free propranolol concentrations.
as §3

[6] = 80 mg propranolol HCl or equivalent

For `CC(C)NCC(COc1cccc2ccccc12)OC(=O)CCC(=O)O` (stereo not drawn) [propranolol-o-hemi-succinate HCl, Butanedioic Acid Monol[[2-(1-Methylethyl] Amino] -1-[(1-Naphthalenyloxy) Methyl] Ethyl] Ester Hydrochloride], the “Plasma level of unchanged propranolol-o-hemi-succinate HCl” value ([1]; 0 h, oral 107 mg, individual dogs, in ng/mL) was 0, the “Mean plasma level of unchanged propranolol-o-hemi-succinate HCl” value ([1]; 0 h, oral 107 mg, mean) was 0 and the Plasma level of unchanged propranolol-o-hemi-succinate HCl ([1]; 1 hr, oral 107 mg, individual dogs, Hydrochloride, 60 min) was 2950 ng/mL and 1900 ng/mL and 3240 ng/mL and 1320 ng/mL. For the same molecule, the Plasma level of unchanged propranolol-o-hemi-succinate HCl ([1]; 2 hrs, oral 107 mg, individual dogs, Hydrochloride, 120 min) was 715 ng/mL and 390 ng/mL and 486 ng/mL and 268 ng/mL, the Plasma level of unchanged propranolol-o-hemi-succinate HCl ([1]; 6 hrs, oral 107 mg, individual dogs, * = estimate only, below level of reliable quantitation, Hydrochloride) was 0 ng/mL and the Plasma level of unchanged propranolol-o-hemi-succinate HCl ([1]; 6 hrs, oral 107 mg, individual dogs, * = estimate only, below level of reliable quantitation, Hydrochloride, 360 min) was 20 ng/mL and 13 ng/mL and 8 ng/mL. It also gave a concentration at 0.5 h ([1]; dog, plasma, po, 107 mg, 1/2 hr, mean, read-out: Mean plasma level of unchanged propranolol-o-hemi-succinate HCl) of 1760 ng/mL, a concentration at 1 h ([1]; dog, plasma, po, 107 mg, 1 hr, mean, read-out: Mean plasma level of unchanged propranolol-o-hemi-succinate HCl) of 2350 ng/mL and a concentration at 2 h ([1]; dog, plasma, po, 107 mg, 2 hrs, mean, read-out: Mean plasma level of unchanged propranolol-o-hemi-succinate HCl) of 465 ng/mL. For the same molecule, the concentration at 4 h ([1]; dog, plasma, po, 107 mg, 4 hrs, mean, read-out: Mean plasma level of unchanged propranolol-o-hemi-succinate HCl) was 62 ng/mL, the concentration at 6 h ([1]; dog, plasma, po, 107 mg, 6 hrs, mean, * = estimate only, below level of reliable quantitation, read-out: Mean plasma level of unchanged propranolol-o-hemi-succinate HCl) was roughly 10 ng/mL and the AUC(0-t) at 6 h ([1]; dog, plasma, po, 107 mg, mean, read-out: Mean AUC 0-6 Hrs. of unchanged propranolol-o-hemi-succinate HCl) was 3470 ng·h/mL. For the same molecule, the “AUC 0-6 Hrs. of unchanged propranolol-o-hemi-succinate HCl” value ([1]; oral 107 mg, individual dogs, Hydrochloride, 360 min) was 3590 ng·h/mL and 3366 ng·h/mL and 4818 ng·h/mL and 2121 ng·h/mL, the “Plasma level of free propranolol” value ([2]; 6 hours after dosing, 80 mg propranolol HCl or 13.4 mg hemi-succinate HCl, individual dogs, Hydrochloride) was “Trace” and the “levels of free propranolol at a dose 1/8 that of propranolol HCl” value ([2]; dogs, vs propranolol HCl, only two dogs) was “comparable levels”. For the same molecule, the “Plasma levels of free propranolol compared with propranolol i.v.” value ([3]; equivalent dose) was “lower”, the “Conversion of the propranolol ester to propranolol” value ([3]; i.v.) was “very fast” and the “levels of propranolol found 5 minutes after administration” value ([3]; i.v., 5 minutes) was “high levels”. For the same molecule, the “Plasma level of unchanged propranolol-o-hemi-succinate HCl” value ([4]; 0 h, i.v. 26.7 mg, individual dogs, in ng/mL) was 0, the Plasma level of unchanged propranolol-o-hemi-succinate HCl ([4]; 1/2 hr, i.v. 26.7 mg, individual dogs, 30 min, Hydrochloride) was 692 ng/mL and 1130 ng/mL and 811 ng/mL and 487 ng/mL and the Plasma level of unchanged propranolol-o-hemi-succinate HCl ([4]; 5 min, i.v. 26.7 mg, individual dogs, Hydrochloride) was 2770 ng/mL and 2540 ng/mL and 1430 ng/mL. The Plasma level of unchanged propranolol-o-hemi-succinate HCl ([4]; 10 min, i.v. 26.7 mg, individual dogs, Hydrochloride) was 1590 ng/mL and 2350 ng/mL and 1780 ng/mL and 946 ng/mL, the Plasma level of unchanged propranolol-o-hemi-succinate HCl ([4]; 15 min, i.v. 26.7 mg, individual dogs, Hydrochloride) was 1210 ng/mL and 1760 ng/mL and 1340 ng/mL and 819 ng/mL and the Plasma level of unchanged propranolol-o-hemi-succinate HCl ([4]; 1 hr, i.v. 26.7 mg, individual dogs, Hydrochloride, 60 min) was 366 ng/mL and 198 ng/mL. The Plasma level of unchanged propranolol-o-hemi-succinate HCl ([4]; 2 hrs, i.v. 26.7 mg, individual dogs, Hydrochloride, 120 min) was 91 ng/mL and 76 ng/mL and 132 ng/mL and 30 ng/mL, the “Plasma level of unchanged propranolol-o-hemi-succinate HCl” value ([4]; 4 hrs, i.v. 26.7 mg, individual dogs, * = estimate only, below level of reliable quantitation, Hydrochloride) was “Trace” and the “Plasma level of unchanged propranolol-o-hemi-succinate HCl” value ([4]; 6 hrs, i.v. 26.7 mg, individual dogs) was “Trace”. For the same molecule, the “Mean plasma level of unchanged propranolol-o-hemi-succinate HCl” value ([4]; 6 hrs, i.v. 26.7 mg, mean) was “Trace”, the “half-life of free propranolol” value ([4]; after i.v. succinate ester) was “two” and the half-life ([4]; dog, plasma, 26.7 mg, following intravenous dosing, read-out: t 1/2 of disappearance of propranolol-o-hemi-succinate hydrochloride) was 30 min. It also gave a concentration at 0.5 h ([4]; dog, plasma, iv, 26.7 mg, 1/2 hr, i.v. 26.7 mg, mean, read-out: Mean plasma level of unchanged propranolol-o-hemi-succinate HCl) of 781 ng/mL, a concentration at 5 min ([4]; dog, plasma, iv, 26.7 mg, 5 min, i.v. 26.7 mg, individual dogs, read-out: Plasma level of unchanged propranolol-o-hemi-succinate HCl) of 2200 ng/mL and a concentration at 5 min ([4]; dog, plasma, iv, 26.7 mg, 5 min, i.v. 26.7 mg, mean, read-out: Mean plasma level of unchanged propranolol-o-hemi-succinate HCl) of 2240 ng/mL. It also gave a concentration at 10 min ([4]; dog, plasma, iv, 26.7 mg, 10 min, i.v. 26.7 mg, mean, read-out: Mean plasma level of unchanged propranolol-o-hemi-succinate HCl) of 1670 ng/mL, a concentration at 0.25 h ([4]; dog, plasma, iv, 26.7 mg, 15 min, i.v. 26.7 mg, mean, read-out: Mean plasma level of unchanged propranolol-o-hemi-succinate HCl) of 1280 ng/mL and a concentration at 1 h ([4]; dog, plasma, iv, 26.7 mg, 1 hr, i.v. 26.7 mg, individual dogs, read-out: Plasma level of unchanged propranolol-o-hemi-succinate HCl) of 287 ng/mL. The concentration at 1 h ([4]; dog, plasma, iv, 26.7 mg, 1 hr, i.v. 26.7 mg, mean, read-out: Mean plasma level of unchanged propranolol-o-hemi-succinate HCl) was 284 ng/mL, the concentration at 2 h ([4]; dog, plasma, iv, 26.7 mg, 2 hrs, i.v. 26.7 mg, mean, read-out: Mean plasma level of unchanged propranolol-o-hemi-succinate HCl) was 82 ng/mL and the concentration at 4 h ([4]; dog, plasma, iv, 26.7 mg, 4 hrs, i.v. 26.7 mg, individual dogs, * = estimate only, below level of reliable quantitation, read-out: Plasma level of unchanged propranolol-o-hemi-succinate HCl) was roughly 15 ng/mL. The concentration at 4 h ([4]; dog, plasma, iv, 26.7 mg, 4 hrs, i.v. 26.7 mg, mean, * = estimate only, below level of reliable quantitation, read-out: Mean plasma level of unchanged propranolol-o-hemi-succinate HCl) was roughly 4 ng/mL, the AUC(0-t) at 6 h ([4]; dog, plasma, iv, 26.7 mg, i.v. 26.7 mg, mean, read-out: Mean AUC 0-6 hr of unchanged propranolol-o-hemi-succinate HCl) was 1230 ng·h/mL and the AUC 0-6 hr of unchanged propranolol-o-hemi-succinate HCl ([4]; i.v. 26.7 mg, individual dogs, Hydrochloride, 360 min) was 1160 ng·h/mL and 1530 ng·h/mL and 1520 ng·h/mL and 711 ng·h/mL. For the same molecule, the “Mean plasma level of unchanged propranolol-o-hemi-succinate HCl” value ([4]; i.v. 26.7 mg, mean) was 0, the “ester left 4 hours after administration” value ([4]; i.v., 4 hours) was “virtually none” and the “plasma levels of free propranolol 6 hours after administration of the succinate ester” value ([4]; i.v., 6 hours) was “significant plasma levels still existed”. For the same molecule, the “Absorption of the succinate and its conversion to propranolol” value [5] was “rapid”, the “plasma levels of free propranolol relative to equivalent dose of propranolol hydrochloride” value [5] was “eight times higher” and the “C.V. of overall mean AUC 0-6 hr” value [5, 6] was 41%. For the same molecule, the “s.d. of overall mean AUC 0-6 hr” value [5, 6] was 445 ng·h/mL, the “Plasma level of propranolol following oral administration, compared with propranolol hydrochloride” value ([5]; equivalent dose) was “considerably higher” and the “reduction of fluctuation in plasma levels following the pro-drug, as revealed by AUC values” ([5]; vs propranolol hydrochloride) was 35%.
